This test concerns CRC organoids. As to the kind of experiment: Drug screening assay (HTS) of GFP-labelled organoids in suspension culture, 384-well. Type of test: cell-based, human. The text has this: In the present study, a total of 23 organoid lineages were subjected to screening. Prior to screening, the organoids were labeled with a green fluorescent protein (GFP) using PB-CMV-MCS-EF1α-GFP-Puro PiggyBac (PB513B-1, available from System Biosciences, LLC.) and Super PiggyBac transposase (PB210-20, available from System Biosciences, LLC.) vectors.
The organoids were dissociated with TrypLE Express (available from Thermo Fisher Scientific, Inc.) and filtered using a cell strainer (pore size: 20 μm, available from Sysmex Corporation). Using a cell sorter (SH800, available from Sony Corporation), 800 to 1,500 cells were sorted into each well of a 384-well plate.
The organoids were treated with a test compound 24 hours or 96 hours after seeding. The organoids were grown for 6 to 8 days, and the colony area was measured based on the fluorescence of GFP using an IN Cell Analyzer 6000 confocal imaging system (available from GE Healthcare Life Sciences). In addition, bright field imaging and luminescence-based ATP measurement were carried out using Cell3iMager duos (available from SCREEN Holdings Co., Ltd.) and CellTiter-Glo cell viability assay (available from Promega Corporation).
The bright field image was analyzed using software integrated into the Cell3iMager. […]

The text below walks through data of patent US20250179439A1, “PRODUCTION METHOD FOR ORGANOID” (KEIO UNIVERSITY, priority 2022, published 2025).

Residues, ends and D or L forms follow the SMILES beside them. *: point of attachment. Cbz = O=C(OCc1ccccc1)*

(+)-JQ1: for the setting “CRC organoids compared with normal colon organoids”, the “growth of organoids, CRC versus normal colon organoids (MANOVA of HTS drug responses)” value was “suppressed the growth of organoids in a cancer-specific manner”. Consider `CC(C)C[C@@H](C=O)NC(=O)[C@H](CC(C)C)NC(=O)[C@H](CC(C)C)NC(=O)OCc1ccccc1` [MG-132] (Cbz-Leu-Leu-Leu-aldehyde), for which, where the note is “maximum concentration of 1 μM, all screening plates (normal colon and CRC organoids), used to estimate the background signal”, the cell death is reported as 100%.
